Measurements reported in US12649750B2, “Macrocyclic compounds, compositions, and methods of using thereof” (Sionna Therapeutics Inc., priority 2022, dated 2026).

Legend:
CFTR = target: T1, CFTR (Homo sapiens, UniProt P13569, DEL508-508); experiment: TECC24 AUC fold over DMSO @10 μM, CFTR-mediated transepithelial chloride transport in CF-HBE cells; type: cell-based; conditions: test agent AUC divided by DMSO vehicle AUC, primary CF-HBE cells, ΔF508 homozygous donor, 48 hours incubation
T1 construct: Primary human bronchial epithelial cells from a ΔF508 homozygous CF donor; host or cells: primary human bronchial epithelial cells (CF-HBE), ΔF508 homozygous donor
T1 sequence (P13569 with tags, fused parts or gaps DEL508-508): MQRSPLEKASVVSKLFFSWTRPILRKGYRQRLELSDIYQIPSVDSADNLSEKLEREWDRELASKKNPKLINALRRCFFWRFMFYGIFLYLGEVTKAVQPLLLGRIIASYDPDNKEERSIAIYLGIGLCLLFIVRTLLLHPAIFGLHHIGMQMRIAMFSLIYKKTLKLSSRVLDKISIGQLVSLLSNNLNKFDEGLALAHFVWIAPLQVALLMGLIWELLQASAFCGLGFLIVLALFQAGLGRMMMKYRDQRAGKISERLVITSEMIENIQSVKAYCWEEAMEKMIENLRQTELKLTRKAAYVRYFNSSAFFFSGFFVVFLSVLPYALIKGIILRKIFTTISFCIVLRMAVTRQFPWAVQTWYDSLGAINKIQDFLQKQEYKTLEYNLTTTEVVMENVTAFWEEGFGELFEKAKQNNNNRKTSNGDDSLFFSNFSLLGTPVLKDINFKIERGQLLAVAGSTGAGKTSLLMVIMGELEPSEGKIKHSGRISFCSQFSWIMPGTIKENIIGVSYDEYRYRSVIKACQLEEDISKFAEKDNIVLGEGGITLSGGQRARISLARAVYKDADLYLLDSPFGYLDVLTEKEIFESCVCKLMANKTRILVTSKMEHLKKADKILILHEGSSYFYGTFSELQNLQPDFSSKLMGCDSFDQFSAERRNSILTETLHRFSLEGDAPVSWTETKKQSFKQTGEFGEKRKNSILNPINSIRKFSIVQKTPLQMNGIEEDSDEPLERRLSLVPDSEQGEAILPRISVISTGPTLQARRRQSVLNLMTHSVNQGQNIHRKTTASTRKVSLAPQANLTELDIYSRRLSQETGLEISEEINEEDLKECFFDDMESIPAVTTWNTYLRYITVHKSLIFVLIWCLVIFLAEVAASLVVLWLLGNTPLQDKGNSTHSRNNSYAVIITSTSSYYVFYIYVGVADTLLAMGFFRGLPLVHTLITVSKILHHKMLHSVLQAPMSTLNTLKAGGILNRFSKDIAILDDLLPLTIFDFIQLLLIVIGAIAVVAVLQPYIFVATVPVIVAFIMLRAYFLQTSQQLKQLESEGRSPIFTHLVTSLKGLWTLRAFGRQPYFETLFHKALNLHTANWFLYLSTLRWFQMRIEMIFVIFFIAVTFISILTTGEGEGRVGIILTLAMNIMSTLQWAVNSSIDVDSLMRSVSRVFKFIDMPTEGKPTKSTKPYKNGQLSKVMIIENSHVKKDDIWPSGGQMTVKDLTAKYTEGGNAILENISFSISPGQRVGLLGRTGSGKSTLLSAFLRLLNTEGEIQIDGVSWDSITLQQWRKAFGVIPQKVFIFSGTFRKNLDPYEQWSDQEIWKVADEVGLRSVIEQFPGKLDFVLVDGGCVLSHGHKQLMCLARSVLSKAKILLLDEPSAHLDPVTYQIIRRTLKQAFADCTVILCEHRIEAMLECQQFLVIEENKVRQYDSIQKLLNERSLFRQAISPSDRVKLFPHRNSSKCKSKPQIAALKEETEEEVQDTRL
In short: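 Primary ΔF508-homozygous CF bronchial epithelial cells on inserts were incubated 48 h at 36.5 °C with compound in IL-13-containing medium. VT and TEER were then recorded in current-clamp mode (pH 7.4 HEPES bath) with benzamil 10 μM, forskolin 10 μM, then CFTR inhibitor-172 20 μM. The IEQ AUC between forskolin and inhibitor was divided by vehicle AUC.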

NBD1 = target: T2, NBD1 (Homo sapiens, UniProt P13569); experiment: Aggregation analysis using differential static light scattering (DSLS), thermal stability of NBD1 (ΔTagg); type: binding; conditions: ΔTagg versus DMSO control, NBD1 0.2 mg/ml
T2 construct: Purified recombinant NBD1 was produced using previously described methods; made in house
T2 sequence (P13569 423-646 limits assumed): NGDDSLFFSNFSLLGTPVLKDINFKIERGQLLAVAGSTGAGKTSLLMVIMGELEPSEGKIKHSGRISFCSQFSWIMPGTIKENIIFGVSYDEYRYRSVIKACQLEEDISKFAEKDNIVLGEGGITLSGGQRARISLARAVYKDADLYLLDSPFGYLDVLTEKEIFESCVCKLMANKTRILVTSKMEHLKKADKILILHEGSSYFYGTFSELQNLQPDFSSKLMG
In short: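 Purified recombinant NBD1 at 0.2 mg/ml in Tris buffer pH7.6 with 2 mM ATP, 5 mM MgCl2, 2 mM DTT and 1% glycerol was mixed with DMSO-dissolved compounds under mineral oil. Plates were heated at 1° C. per minute to 70° C., light scattering imaged every 0.5° C.; Tagg from curve inflection, minus DMSO-control mean.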

Structure (SMILES) | TECC (AUC, 10 μM) (CFTR) | DSLS 3D (100 μM ΔT) (NBD1)
Cn1nc2nc1-c1cc(ccc1F)Oc1c(F)cc3[nH]ccc3c1CCS(=O)(=O)CC(C)(C)CCCC2(C)c1ccc2c(c1)CC(C(=O)O)C2 (stereo not shown) [Compound 128, 5-(22,28-Difluoro-3,6,10,10-tetramethyl-12,12-dioxo-24-oxa-12λ6-thia-3,4,19,30-tetrazapentacyclo[23.3.1.12,5.015,23.016,20]triaconta-1(29),2(30),4,15,17,20,22,25,27-nonaen-6-yl)indane-2-carboxylic Acid] | A (a TECC value less than 12 is marked “A”) | C (a value greater than 10 °C and less than or equal to 25 °C is marked “C”)
CCOC(=O)C(Cc1cccc(C2(C)CCCC(C)(C)CS(=O)(=O)CCc3c(c(F)cc4[nH]ccc34)Oc3ccc(F)c(c3)-c3nc2nn3C)c1)C(F)F (stereo not shown) [Compound 131, Ethyl 2-[[3-(22,28-difluoro-3,6,10,10-tetramethyl-12,12-dioxo-24-oxa-12λ6-thia-3,4,19,30-tetrazapentacyclo[23.3.1.12,5.015,23.016,20]triaconta-1(29),2(30),4,15,17,20,22,25,27-nonaen-6-yl)phenyl]methyl]-3,3-difluoro-propanoate] | B (a value between 12-20 is marked “B”) | A (an ΔTagg value less than or equal to 5 °C is marked “A”)
CC(Cc1cccc(C2(N)CCCC(C)(C)CS(=O)(=O)CCc3c(c(F)cc4[nH]ccc34)Oc3ccc(F)c(c3)-c3nc2nn3C)c1)C(=O)O (stereo not shown) [Compound 138, 3-[3-(6-Amino-22,28-difluoro-3,10,10-trimethyl-12,12-dioxo-24-oxa-12λ6-thia-3,4,19,30-tetrazapentacyclo[23.3.1.12,5.015,23.016,20]triaconta-1(29),2(30),4,15,17,20,22,25,27-nonaen-6-yl)phenyl]-2-methyl-propanoic Acid] | C (a value between 20 and 80 is marked “C”) | C (a value greater than 10 °C and less than or equal to 25 °C is marked “C”)
Cn1nc2nc1-c1cc(ccc1F)Oc1c(F)cc3[nH]ccc3c1CCS(=O)(=O)CC(C)(C)CCCC2(C)c1cccc(O)c1 (stereo not shown) [Compound 154, 3-(22,28-Difluoro-3,6,10,10-tetramethyl-12,12-dioxo-24-oxa-12λ6-thia-3,4,19,30-tetrazapentacyclo[23.3.1.12,5.015,23.016,20]triaconta-1(29),2(30),4,15,17,20,22,25,27-nonaen-6-yl)phenol] | A (a TECC value less than 12 is marked “A”) | B (a value above 5 °C and less than or equal to 10 °C is marked “B”)
C/C(C(=O)O)=C(/C)c1cccc(C2(C)CCCC(C)(C)CS(=O)(=O)CCc3c(c(F)cc4[nH]ccc34)Oc3ccc(F)c(c3)-c3nc2nn3C)c1 (stereo not shown) [Compound 155, (E)-3-[3-(22,28-Difluoro-3,6,10,10-tetramethyl-12,12-dioxo-24-oxa-12λ6-thia-3,4,19,30-tetrazapentacyclo[23.3.1.12,5.015,23.016,20]triaconta-1(29),2(30),4,15,17,20,22,25,27-nonaen-6-yl)phenyl]-2-methyl-but-2-enoic Acid] | A (a TECC value less than 12 is marked “A”) | C (a value greater than 10 °C and less than or equal to 25 °C is marked “C”)
CC(C(=O)O)C(C)c1cccc(C2(C)CCCC(C)(C)CS(=O)(=O)CCc3c(c(F)cc4[nH]ccc34)Oc3ccc(F)c(c3)-c3nc2nn3C)c1 (stereo not shown) [Compound 156, 3-[3-(22,28-Difluoro-3,6,10,10-tetramethyl-12,12-dioxo-24-oxa-12λ6-thia-3,4,19,30-tetrazapentacyclo[23.3.1.12,5.015,23.016,20]triaconta-1(29),2(30),4,15,17,20,22,25,27-nonaen-6-yl)phenyl]-2-methyl-butanoic Acid] | B (a value between 12-20 is marked “B”) | C (a value greater than 10 °C and less than or equal to 25 °C is marked “C”)
COC(=O)C(C)CCc1cccc(C2(C)CCCC(C)(C)CS(=O)(=O)CCc3c(c(F)cc4[nH]ccc34)Oc3ccc(F)c(c3)-c3nc2nn3C)c1 (stereo not shown) [Compound 159, Methyl 4-[3-(22,28-difluoro-3,6,10,10-tetramethyl-12,12-dioxo-24-oxa-12λ6-thia-3,4,19,30-tetrazapentacyclo[23.3.1.12,5.015,23.016,20]triaconta-1(29),2(30),4,15,17,20,22,25,27-nonaen-6-yl)phenyl]-2-methyl-butanoate] | B (a value between 12-20 is marked “B”) | A (an ΔTagg value less than or equal to 5 °C is marked “A”)
CC(CCc1cccc(C2(C)CCCC(C)(C)CS(=O)(=O)CCc3c(c(F)cc4[nH]ccc34)Oc3ccc(F)c(c3)-c3nc2nn3C)c1)C(=O)O (stereo not shown) [Compound 160, 4-[3-(22,28-Difluoro-3,6,10,10-tetramethyl-12,12-dioxo-24-oxa-12λ6-thia-3,4,19,30-tetrazapentacyclo[23.3.1.12,5.015,23.016,20]triaconta-1(29),2(30),4,15,17,20,22,25,27-nonaen-6-yl)phenyl]-2-methyl-butanoic Acid] | A (a TECC value less than 12 is marked “A”) | C (a value greater than 10 °C and less than or equal to 25 °C is marked “C”)
C[C@@H](Cc1cccc(C2CCCC(C)(C)CS(=O)(=O)CCc3c(c(F)cc4[nH]ccc34)C(=O)c3cccc(c3)-c3ccn2n3)c1)C(=O)O (stereo partly drawn) [Compound 163, (2S)-3-[3-(22-Fluoro-10,10-dimethyl-12,12,24-trioxo-12λ6-thia-5,19,30-triazapentacyclo[23.3.1.12,5.015,23.016,20]triaconta-1(29),2(30),3,15,17,20,22,25,27-nonaen-6-yl)phenyl]-2-methyl-propanoic Acid] | A (a TECC value less than 12 is marked “A”) | A (an ΔTagg value less than or equal to 5 °C is marked “A”)
C[C@H](Cc1cccc(C2CCCC(C)(C)CS(=O)(=O)CCc3c(c(F)cc4[nH]ccc34)C(=O)c3cccc(c3)-c3ccn2n3)c1)C(=O)O (stereo partly drawn) [Compound 164, (2R)-3-[3-(22-Fluoro-10,10-dimethyl-12,12,24-trioxo-12λ6-thia-5,19,30-triazapentacyclo[23.3.1.12,5.015,23.016,20]triaconta-1(29),2(30),3,15,17,20,22,25,27-nonaen-6-yl)phenyl]-2-methyl-propanoic acid] | A (a TECC value less than 12 is marked “A”) | A (an ΔTagg value less than or equal to 5 °C is marked “A”)
Cn1nc2nc1-c1cc(ccc1F)Oc1c(F)cc3[nH]ccc3c1CCS(=O)(=O)CC(C)(C)CCCC2(C)c1cccc(CC(C(=O)O)C(F)(F)F)c1 (stereo not shown) [Compound 168, 2-[[3-(22,28-Difluoro-3,6,10,10-tetramethyl-12,12-dioxo-24-oxa-12λ6-thia-3,4,19,30-tetrazapentacyclo[23.3.1.12,5.015,23.016,20]triaconta-1(29),2(30),4,15,17,20,22,25,27-nonaen-6-yl)phenyl]methyl]-3,3,3-trifluoro-propanoic acid] | B (a value between 12-20 is marked “B”) | C (a value greater than 10 °C and less than or equal to 25 °C is marked “C”)
Cc1cn2nc1-c1cccc(c1)C(=O)c1c(F)cc3[nH]ccc3c1CCS(=O)(=O)CC(C)(C)CCCC2c1cccc(C[C@H](C)C(=O)O)c1 (stereo partly drawn) [Compound 170, (2S)-3-[3-(22-Fluoro-3,10,10-trimethyl-12,12,24-trioxo-12λ6-thia-5,19,30-triazapentacyclo[23.3.1.12,5.015,23.016,20]triaconta-1(29),2(30),3,15,17,20,22,25,27-nonaen-6-yl)phenyl]-2-methyl-propanoic Acid] | A (a TECC value less than 12 is marked “A”) | A (an ΔTagg value less than or equal to 5 °C is marked “A”)
Cn1nc2nc1-c1cc(ccc1F)Oc1c(F)cc3[nH]ccc3c1CCS(=O)(=O)CC(C)(C)CCCC2(C)c1cccc(/C=C2\CCOC2=O)c1 (stereo not shown) [Compound 172, (3E)-3-[[3-(22,28-Difluoro-3,6,10,10-tetramethyl-12,12-dioxo-24-oxa-12λ6-thia-3,4,19,30-tetrazapentacyclo[23.3.1.12,5.015,23.016,20]triaconta-1(29),2(30),4,15,17,20,22,25,27-nonaen-6-yl)phenyl]methylene]tetrahydrofuran-2-one] | A (a TECC value less than 12 is marked “A”) | B (a value above 5 °C and less than or equal to 10 °C is marked “B”)
Cn1nc2nc1-c1cc(ccc1F)Oc1c(F)cc3[nH]ccc3c1CCS(=O)(=O)CC(C)(C)CCCC2(C)c1cccc(CC2CCOC2=O)c1 (stereo not shown) [Compound 173, 3-[[3-(22,28-Difluoro-3,6,10,10-tetramethyl-12,12-dioxo-24-oxa-12λ6-thia-3,4,19,30-tetrazapentacyclo[23.3.1.12,5.015,23.016,20]triaconta-1(29),2(30),4,15,17,20,22,25,27-nonaen-6-yl)phenyl]methyl]tetrahydrofuran-2-one] | C (a value between 20 and 80 is marked “C”) | B (a value above 5 °C and less than or equal to 10 °C is marked “B”)
